One compound from patent publication US20220062218A1, “COMPOSITIONS AND METHODS FOR TREATING DIABETES” (ENZYCHEM LIFESCIENCES, priority 2019, published 2022) can be followed below.

Holding throughout (assay type): cell-based, rat
The subject of test [1] is INS-1 cells. As to the kind of experiment: STZ-induced cell apoptosis in INS-1 cells, flow cytometry with annexin-V and 7-AAD. The note with it: STZ-treated cells. As to the method: The effect of PLAG on STZ-induced cell apoptosis was analyzed using flow cytometry using annexin-V and 7-AAD dye (FIGS. 2A and 2B). Cells were collected by trypsinization and washed with PBS. For cell apoptosis analyses, INS-1 cells were incubated with annexin V (BD Biosciences, Franklin Lakes, N.J., USA) for 10 min at room temperature, and stained with 7-AAD (BD Biosciences). Analysis was performed using a BD FACSVerse flow cytometer (BD Biosciences). The annexin-V and 7-AAD dyes are dyes that label apoptosis, one kind of cell death.
(§1) After treatment with PLAG and PLH(1-palmitoyl-2-linoleoyl-3-hydroxyl-rac-glycerol), apoptosis, intracellular ROS generation and glucose uptake were analyzed by flow cytometry (FIG. 7-B to 7-E). In addition, expression of GLUT2 in membrane fractions was analyzed by Western blotting (FIG.7-F). Data are presented as mean ±SD. ***P<0.001 vs. control, #P<0.05, ##P<0.005 vs. STZ. N.S.: No significance.
(§2) INS-1 rat insulinoma pancreas beta cells were cultured in RPMI-1640 medium (Welgene, Gyeongsangbuk-do, Republic of Korea) containing 10% fetal bovine serum (Tissue Culture Biologicals, Long Beach, Calif., USA), 50 μM β-mercaptoethanol, 100 units/mL penicillin, and 100 μg/mL streptomycin (Antibiotic-Antimycotic Solution, Welgene). The cells were grown in a humidified atmosphere with 5% CO2 at 37° C. Chemicals and reagents
(§3) Cells were collected by trypsinization and washed with ice-cold PBS. For cell apoptosis analyses, INS-1 cells were incubated with annexin V (BD Biosciences, Franklin Lakes, N.J., USA) for 10 min at room temperature, and stained with 7-AAD (BD Biosciences). For intracellular reactive oxygen species (ROS) analyses, cells were incubated with 2 μM of DCFH-DA (2′,7′-dichlorodihydrofluorescein diacetate, Invitrogen, Carlsbad, Calif., USA) for 30 min at 37° C. The analysis was performed using a BD FACS Verse flow cytometer (BD Biosciences).

The subject of test [2] is apoptosis-related proteins BCL-2, BAX, cytochrome c, caspase-3. As to the kind of experiment: Expression of apoptosis-related proteins (BCL-2, BAX, cytochrome c, caspase-3) by western blotting in STZ-treated cells. As to the method: (§4) In addition, to perform a special protein detection test (Western Blotting), cells were lysed by RIPA buffer (LPS Solution, Daejeon, Korea) supplemented with protease and phosphatase inhibitors (Thermo Scientific, Waltham, Mass., USA). Proteins were separated on 12% sodium dodecyl sulfate-polyacrylamide gels and transferred to polyvinylidene difluoride membranes (EMD Millipore, Darmstadt, Germany). The membranes were blocked with 5% BSA for 1 h and incubated with primary antibodies to GLUT2 (bs-0351r, Bioss, Woburn, Mass., USA), RAC1 (03589, EMD Millipore), BAX (B51030, Bioworld Tech, St. Louis Park, Minn., USA), BCL-2 (B51031, Bioworld), Cytochrome c (#4272, Cell Signaling Technology, Danvers, Mass., USA), Caspase-3 (#9662, Cell Signaling Technology), and Na+-K+ ATPase (#3010S, Cell Signaling Technology). After three washes in PBST, membranes were incubated with HRP-conjugated secondary antibodies (Enzo Life Sciences, dilution 1:5,000) for 1 h at room temperature. Protein bands were detected using ECL reagent (Thermo Scientific) and then visualized on films. Expression of apoptosis-related proteins like Bcl-2, Bax, cytochrome c, caspase-3 was analyzed by western blotting, Bax/Bcl-2 ratio is represented by a bar graph (FIG. 2-C). Data are presented as mean ±SD (***P<0.001 vs. control, #P<0.05, ##P<0.005 vs. STZ).

Test [3] relates to Glucose Transporter 2 (GLUT2). The test is described as follows: GLUT2 plasma membrane expression in STZ-treated cells (western blotting of membrane fractions, immunofluorescence). As to the method: To investigate the effect of PLAG on GLUT2 plasma membrane localization, GLUT2 expression and Racl expression in membrane fractions were examined in the same manner as the Western protein blotting (FIGS. 3A to 3B).
In addition, the localization of GLUT2 was observed by immunofluorescence assay. Cells were grown on glass coverslips in 24-well plates and treated with STZ and PLAG. After washing with ice-cold PBS, the cells were fixed with 4% formaldehyde. Permeabilization was not performed to identify only proteins expressed in the cell membrane. The cells were incubated with anti-GLUT2 antibodies (dilution 1:500) and then stained with an Alexa Fluor 488-conjugated secondary antibody (Enzo Life Sciences, dilution 1:1000) and DAPI (Invitrogen). Stained cells were observed under a Zeiss LSM800 confocal microscope (Carl Zeiss, Jena, Germany) (FIG. 3-C).
as §1

The test system of a further test is RAC1. The test is described as follows: RAC1 expression in membrane fractions of STZ-treated cells by western blotting. Conditions: time course. On the procedure: as §4, with “STZ). […]” for “STZ).”
Test [4] deals with INS-1 cells. The test is described as follows: Glucose uptake assay with 2-NBDG in INS-1 cells (flow cytometry, immunofluorescence). As to the method: 2-[N-(7-nitrobenz-2-oxa-1,3-diazol-4-yl)amino]-2-deoxy-D-glucose (2-NBDG, N13195, Thermo Scientific) was used for glucose uptake assays. Glucose uptake assays were performed using 2-NBDG conjugated with fluorescent dye. Intracellular 2-NBDG was measured at 60 min (FIG. 5A) and successively calculated from 5 min to 480 min after 2-NBDG treatment by How cytometry (FIG. 5B). Serum-containing complete medium was removed, and INS-1 cells were washed in PBS. The cells were cultured in glucose-free culture media for 1 h at 37° C. and then treated with 2-NBDG. Intracellular fluorescence was measured using a BD FACS Verse flow cytometer (BD Biosciences).
Intracellular 2-NBDG expression were also observed using immunofluorescence assay (FIG.5-C). Data are presented as mean ±SD. *P<0.05, **P<0.005, ***P<0.001 vs. control, #P<0.05, ##P<0.005 vs. STZ.
as §1

The test system of test [5] is INS-1 cells. As to the kind of experiment: High glucose (HG)-induced intracellular ROS generation in INS-1 cells, flow cytometry with DCFH-DA. Conditions: pre-treated with 50 or 100 μg/mL of PLAG for 1 h, then 30 mM HG for 48 h. On the procedure:
Intracellular ROS generation also analyzed by flow cytometry using DCFH-DA dye. ROS generation was determined by analyzing changes in fluorescence intensity. INS-1 cells were pre-treated with 50 or 100 μg/mL of PLAG for 1 h, and then treated with 30 mM of HG for 48h. […] PLAG promotes GLUT2 endocytosis in HG-treated INS-1 cells (FIG. 10)
as §2, §3

Take `CCCCC/C=C\C/C=C\CCCCCCCC(=O)OC(COC(C)=O)COC(=O)CCCCCCCCCCCCCCC` (racemic) [PLAG, 1-palmitoyl-2-linoleoyl-3-acetyl-rac-glycerol]: the apoptosis with INS-1 cells [1] (10 μg/mL of PLAG) is listed as around 50%; with INS-1 cells [1] (100 μg/mL PLAG), around 30%. The “decrease of cell apoptosis, PLAG vs PLH” value with INS-1 cells [1] (Example 8) was “more effective than PLH”. Besides, in test [2] (decreased by STZ), the “expression of anti-apoptotic protein BCL-2” value is on record as “recovered by PLAG”. In addition, the “expression of apoptosis-related proteins BAX, cytochrome c, and caspase-3” value in test [2] (increased by STZ) is recorded as “attenuated by PLAG addition”. In test [3] (Example 8, membrane fractions by western blotting), the “GLUT2 endocytosis / internalization, PLAG vs PLH” value was “endocytosis of GLUT2 was promoted”. For the same compound, the “GLUT2 internalization (immunofluorescence)” value in test [3] (STZ-treated cells, non-permeabilized, up to 60 min) is reported as “accelerated GLUT2 internalization was observed”. In addition, the “membrane-expressed GLUT2 (time course)” value in test [3] (STZ-treated cells, western blotting of membrane fractions, up to 60 min) is “gradually decreased until 10 min, then recovered and returned to control levels at 60 min”. In addition, the “expression of RAC1 in membrane fractions” value in the test with RAC1 is listed as “attenuated after a slight increase in 15 min”. In addition, in the test with INS-1 cells [4] (5 min to 480 min after 2-NBDG treatment, flow cytometry, vs 2-NBDG alone), the “glucose uptake (2-NBDG time course)” value is given as “glucose uptake was attenuated”. Moreover, the “glucose uptake (2-NBDG), PLAG vs PLH” value in the test with INS-1 cells [4] (Example 8, flow cytometry) was 2-NBDG was slowly absorbed. Moreover, the “intracellular 2-NBDG fluorescence intensity” value in the test on INS-1 cells [4] (at 60 min, flow cytometry) is on record as “lower fluorescence intensity”. The “intracellular 2-NBDG (immunofluorescence)” value in the test with INS-1 cells [4] (time course vs 2-NBDG-only treated group) is on record as “increased more slowly”. For the same compound, in the test on INS-1 cells [5], the “HG-induced intracellular ROS generation” value was “dose-dependently decreased”.
